Assays:
[1] = tested on: rat bladder; test: Evaluation of bladder overactivity in rodents (urodynamics), Example 2; format: in vivo, Sprague-Dawley rats; settings: intravesical infusion; TF 15 mg/mL alone or mixed 1:1 with unmodified THP or THP-d 10 mg/ml, followed by 400 mM KCl for 30 min
Method: After a few days of acclimatization, adult male SD rats underwent urodynamics evaluation of bladder hyperactivity before and after intravesical infusion of a test substance^8 (TF or TF plus unmodified THP or TF plus THP-d) followed by intravesical KCl. The procedure for the in vivo rat study was performed as described previously.^23
After baseline measurements of pressure threshold, peak pressure, frequency of contractions, inter-contractile interval, and percentage of nonvoiding contractions (NVC) were recorded as previously described,^23 rats were infused with the test solution. One group of animals received an infusion of TF (15 mg/mL). To test the effect of desialylation on the ability of THP to attenuate the bladder hyperactivity induced by TF and KCl, second and third groups of animals received an infusion of a mixture of unmodified THP or THP-d 10 mg/ml and TF (15 mg/ml) mixed in a ratio of 1:1.
Infusion of the test solution was followed by infusion of 400 mM KCl for 30 min^8 and urodynamics measurements were repeated.

[2] = tested on: rat bladder; test: Evaluation of bladder overactivity in rodents (urodynamics, KCl infusion after test substance), Example 1; format: in vivo, Sprague-Dawley rats; settings: intravesical infusion; TF 15 mg/mL or THP 10 mg/ml + TF 15 mg/ml 1:1, followed by 400 mM KCl for 30 minutes
Text: After a few days of acclimatization, two groups (n=9 each) of adult male Sprague-Dawley rats (325-350 g) underwent urodynamics evaluation of bladder hyperactivity before and after intravesical infusion of a test substance (TF or TF plus THP) followed by intravesical KCl.^8 The procedure was as follows.
The rats were anesthetized with a subcutaneous injection of urethane (1.2 g/Kg) and a 1 cm incision was made along the centerline of the lower ventral abdomen. Once the bladder was exteriorized, a 22 gauge (0.7 mm) catheter (Intracath, Becton-Dickinson, OH) was inserted into the bladder dome and sutured in place using a purse string suture with 4.0 tapered prolene suture. The bladder was returned to the abdomen, with the line escaping through the incision. […] During the continuous filling bladder cystometry, the pressure was recorded with the transducer using the program LabView (National Instruments, TX).
To induce hyperactivity, the bladder was first infused with warm (37° C.) 0.9% saline or 400 mM KCl (29.8 mg/mL, Abbott Laboratories, IL) at 40 μL/min (2.4 mL/hr) and at least 20 minutes of stable voiding cycles were recorded during infusion. The pressure threshold (PT, pressure at which voiding initializes) and peak pressure (PP, pressure maximum or amplitude of bladder contractions) were recorded. […]

[3] = tested on: rat bladder; test: Evaluation of bladder overactivity in rodents (urodynamics), Example 4; format: in vivo, Sprague-Dawley rats; settings: intravesical infusion; PS 30 mg/mL, toxic factor 15 mg/mL, or PPS 10 mg/ml + toxic factor 15 mg/ml, followed by 400 mM KCl for 30 minutes
Text: After a few days of acclimatization, three groups (n=9 each) of adult male Sprague-Dawley rats (325-350 g) underwent urodynamics evaluation of bladder hyperactivity before and after intravesical infusion of a test substance (PS, urinary toxic factor, or toxic factor plus PPS) followed by intravesical KCl.^4
The procedure was as follows: The rats were anesthetized with a subcutaneous injection of urethane (1.2 g/Kg) and a 1 cm incision made along the centerline of the lower ventral abdomen. […] During the continuous filling bladder cystometry, the pressure was recorded with the transducer using the program LabView (National Instruments, TX).
To induce hyperactivity, the bladder was first infused with warm 0.9% saline (37° C.) at 40 μL/min (2.4 mL/hr) and at least 20 minutes of stable voiding cycles recorded during infusion. The pressure threshold (PT, pressure at which voiding initializes) and peak pressure (PP, pressure maximum or amplitude of bladder contractions) were recorded. Frequency of contractions and inter-contractile interval (ICI) were recorded, along with the percentage of non-voiding contractions (% NVC, contractions where the PP is greater than 2 cm H2O and less than the TP, thus not resulting in a void). […]

[4] = tested on: human bladder cells (HTB4); test: Cytotoxicity assay, unmodified versus desialylated THP, Example 2
Method: The TF obtained from 2 different pooled urine samples (TF1, TF2) was tested for cytotoxicity using the CellTiter96 Aqueous One Solution Proliferation Assay™ (Promega Corp, Madison, Wis.). Rat urothelial target cells and human HTB4 urothelial cells were plated in 96-well tissue culture plates (Nunclon™) in triplicate (50,000 cells/well). Cells had been maintained in Ham's-M199 tissue culture media supplemented with 10% fetal calf serum (FCS)+antibiotics (Pen-Strep).
For cytotoxicity assay, cells were harvested from seed flasks, washed free of trypsin-EDTA, and resuspended in DME media (without phenol red indicator) −1% FCS (assay media). An aliquot of the cell suspension was counted in a hemocytometer and diluted with assay media to a concentration of 0.5×10^6 cells/ml, from which 100 μl (5×10^4 cells) were added to each well in a 96-well microtiter plate. […] Dose response data was determined beforehand for the TF preparations. […]
After overnight incubation at 37° C., the target cells were washed twice with DME alone (200 μl/well) and fresh DME added to each well (90 μl). Then a tetrazolium compound (MTS-Owen's Reagent) combined with an electron coupling reagent (PES) was added (10 μl/well) per kit protocol and absorbance measured in a plate reader after 30 min incubation at 490 nm and at 630 nm after blanking the plate to DME media containing the tetrazolium compound. […]

[5] = THP zeta potential (mV) measurements; format: physicochemical; settings: 0.01M NaCl buffer, pH 7.0 at 25° C.; n=6 in each group
Method: Surface charge properties (zeta potential) are measured for THP samples from patients (n=6) and controls (n=6). THP (Biomedical Technologies, Inc.) and fetuin and asialofetuin (Sigma Chemical Co.) standards (50 μg) are similarly measured. Zeta potential and size measurements are made with a Zetasizer Nano ZS instrument and a CGS-3 Goniometer system (Malvern Instruments Inc., Southborough, Mass.) with ancillary software version 4.0. All zeta potential measurements are conducted on rehydrated samples in 0.01M NaCl buffer, pH 7.0 at 25° C., after centrifugation followed by filtration ([…]) to remove any aggregates. Measurements are made in triplicate and the results analyzed by Student's t test for significance.

[Cl-].[K+] [KCl]
NVC/minute (nonvoiding contractions) [1]: 0.25 ± 0.064 NVC/minute
NVC/minute (nonvoiding contractions) [2]: 0.25 ± 0.064 NVC/minute
NVC/minute (nonvoiding contractions) [3]: 0.25 ± 0.064 NVC/minute

THP-d: THP desialylated by mild acid hydrolysis in 2.5M acetic acid, 3 hr at 82° C.
Average cytotoxicity (%) ([4]; HTB4 cells 5 × 10^4/well, THP or THP-d mixed with TF 60 min, overnight incubation, relative to media controls): 13.4%

control THP: THP isolated from urine of healthy control subjects
zeta potential [5]: −28.0±2.4 mV

protamine sulfate
Cytotoxicity LD50 ([4]; footnote to Table 3, known cytotoxic agent): †Cytotoxicity of protamine sulfate, a known cytotoxic agent: LD50 = ~20 μg
NVC/minute (nonvoiding contractions) [3]: 1.733 ± 0.55 NVC/minute

Reference: US20090023637A1, “Methods for detecting and treating interstitial cystitis” (priority 2006, published 2009)
